Measurements reported in paper PMC3914206.

Experiments:
panel of 442 kinases [1] = target: T1, panel of 442 kinases (Homo sapiens, UniProt P31751); type: binding; conditions: Compound Concentration 10 µM
T1 construct: purchased KINOMEscan
Text: (§1) We assessed the selectivity of members of this scaffold using the KINOMEscan methodology across a near comprehensive panel of 442 kinases [[18,27]].

panel of 442 kinases [2] = target: T2, panel of 442 kinases (Homo sapiens, UniProt P36888, K663Q); type: binding; conditions: Compound Concentration 10 µM
T2 construct: purchased KINOMEscan
T2 sequence (P36888 27-993 K663Q): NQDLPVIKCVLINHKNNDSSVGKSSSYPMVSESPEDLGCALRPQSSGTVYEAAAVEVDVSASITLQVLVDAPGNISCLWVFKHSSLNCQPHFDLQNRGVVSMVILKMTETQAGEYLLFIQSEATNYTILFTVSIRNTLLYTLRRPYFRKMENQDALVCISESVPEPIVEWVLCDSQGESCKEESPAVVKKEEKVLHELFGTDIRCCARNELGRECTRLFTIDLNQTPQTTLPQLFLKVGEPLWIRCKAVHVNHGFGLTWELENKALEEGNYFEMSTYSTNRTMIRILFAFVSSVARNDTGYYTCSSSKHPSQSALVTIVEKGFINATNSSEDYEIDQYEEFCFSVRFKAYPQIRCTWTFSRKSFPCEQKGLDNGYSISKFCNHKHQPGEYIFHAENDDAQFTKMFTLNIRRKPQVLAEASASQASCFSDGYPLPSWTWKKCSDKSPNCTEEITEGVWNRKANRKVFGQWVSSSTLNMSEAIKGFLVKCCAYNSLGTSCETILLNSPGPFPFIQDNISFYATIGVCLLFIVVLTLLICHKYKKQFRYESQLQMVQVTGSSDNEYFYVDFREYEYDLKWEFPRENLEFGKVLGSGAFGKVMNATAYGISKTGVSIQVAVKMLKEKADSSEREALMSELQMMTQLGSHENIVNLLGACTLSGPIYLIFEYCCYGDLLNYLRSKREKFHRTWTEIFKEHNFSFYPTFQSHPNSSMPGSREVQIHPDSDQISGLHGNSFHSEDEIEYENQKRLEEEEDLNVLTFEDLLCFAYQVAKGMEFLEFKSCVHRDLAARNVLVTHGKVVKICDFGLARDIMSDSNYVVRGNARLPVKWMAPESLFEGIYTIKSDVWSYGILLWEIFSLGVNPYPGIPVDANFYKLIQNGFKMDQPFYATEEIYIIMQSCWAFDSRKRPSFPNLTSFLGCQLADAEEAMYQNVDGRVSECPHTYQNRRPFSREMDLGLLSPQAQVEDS
Text: as §1

T1 sequence (P31751 whole entry): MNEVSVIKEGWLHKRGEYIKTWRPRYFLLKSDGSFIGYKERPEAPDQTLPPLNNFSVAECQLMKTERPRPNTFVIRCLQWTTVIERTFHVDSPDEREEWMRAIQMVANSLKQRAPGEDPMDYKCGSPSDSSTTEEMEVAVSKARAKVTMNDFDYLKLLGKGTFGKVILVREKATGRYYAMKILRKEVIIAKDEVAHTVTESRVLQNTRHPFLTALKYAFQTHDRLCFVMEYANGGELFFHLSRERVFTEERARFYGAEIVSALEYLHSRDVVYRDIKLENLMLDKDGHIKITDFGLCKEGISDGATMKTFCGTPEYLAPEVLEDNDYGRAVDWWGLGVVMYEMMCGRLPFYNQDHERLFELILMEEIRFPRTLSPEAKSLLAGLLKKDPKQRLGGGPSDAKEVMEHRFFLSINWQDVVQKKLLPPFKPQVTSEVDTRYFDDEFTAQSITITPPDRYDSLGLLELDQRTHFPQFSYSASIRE

| SMILES | KINOMEscan: AKT2 (panel of 442 kinases [1]) | KINOMEscan: FLT3(K663Q) (panel of 442 kinases [2]) |
| --- | --- | --- |
| COc1cc(C(=O)N2CCC(N3CCN(C)CC3)CC2)ccc1Nc1ncc2c(n1)N(C)c1ccccc1C(=O)N2C [15 (LRRK2-IN-1)] | 100 | 97 |
| COc1cc(C(=O)N2CCC(N3CCN(C)CC3)CC2)ccc1Nc1ncc2c(n1)N1CCc3cccc(c31)C(=O)N2C [Compound 24] | – | 100 |
| COc1cc(C(=O)N2CCC(N3CCN(C)CC3)CC2)ccc1Nc1ncc2c(n1)N(C1CCCC1)c1ccccc1C(=O)N2C [Compound 25, 11-cyclopentyl-2-((2-methoxy-4-(4-(4-methylpiperazin-1-yl)piperidine-1-carbonyl)phenyl)amino)-5-methyl-5H-benzo[e]pyrimido[5,4-b][1,4]diazepin-6(11H)-one] | 100 | 100 |
| CCOc1cc(C(=O)N2CCC(N3CCN(C)CC3)CC2)ccc1Nc1ncc2c(n1)N(C1CCCC1)c1ccccc1C(=O)N2C [Compound 26] | 100 | 100 |
